Experiments:
Assay type in all cases: toxicity, cell-based
HEK-293T = test: Incucyte cell viability with HEK293T; settings: human, 24 h, 10 µM, compound concentration 10 uM
Fibroblast = test: Incucyte cell viability with human fibroblast; settings: 24 h, 10 µM, compound concentration 10 uM
U2OS = test: Incucyte cell viability with U2OS; settings: human, 24 h, 10 µM, compound concentration 10 uM
Also: unitless GR value; below 1 slowed growth and below 0 cell loss.

Nc1ncnc2c1ncn2[C@@H]1O[C@H](C[C@@H](N)CC[C@H](N)C(=O)O)[C@@H](O)[C@H]1O [SINEFUNGIN]
Growth Rate (HEK-293T; replicate number 1): 0.85
Growth Rate (HEK-293T; replicate number 2): 0.88
Growth Rate (Fibroblast; replicate number 1): 0.66
Growth Rate (Fibroblast; replicate number 2): -0.28
Growth Rate (U2OS; replicate number 1): 0.54
Growth Rate (U2OS; replicate number 2): 1

Cc1ccc(C(=O)Nc2ccc(S(=O)(=O)[O-])c3cc(S(=O)(=O)[O-])cc(S(=O)(=O)[O-])c23)cc1NC(=O)c1cccc(NC(=O)Nc2cccc(C(=O)Nc3cc(C(=O)Nc4ccc(S(=O)(=O)[O-])c5cc(S(=O)(=O)[O-])cc(S(=O)(=O)[O-])c45)ccc3C)c2)c1.[Na+].[Na+].[Na+].[Na+].[Na+].[Na+] [SURAMIN HEXASODIUM]
Growth Rate (HEK-293T; replicate number 1): 0.7
Growth Rate (HEK-293T; replicate number 2): 0.83
Growth Rate (Fibroblast; replicate number 1): 0.42
Growth Rate (Fibroblast; replicate number 2): 0.59
Growth Rate (U2OS; replicate number 1): 1

CCN(c1cc(-c2ccc(CN3CCOCC3)cc2)cc(C(=O)NCc2c(C)cc(C)[nH]c2=O)c1C)C1CCOCC1 [TAZEMETOSTAT]
Growth Rate (HEK-293T; replicate number 1): 0.68
Growth Rate (HEK-293T; replicate number 2): 0.82
Growth Rate (Fibroblast; replicate number 1): 0.54
Growth Rate (U2OS; replicate number 1): 0.43
Growth Rate (U2OS; replicate number 2): 0.87

O=C(CCCCCCC(=O)Nc1ccc([C@H]2O[C@@H](CSc3nc(-c4ccccc4)c(-c4ccccc4)o3)C[C@@H](c3ccc(CO)cc3)O2)cc1)NO [TUBACIN]
Growth Rate (HEK-293T; replicate number 1): 0.85
Growth Rate (HEK-293T; replicate number 2): 1
Growth Rate (Fibroblast; replicate number 1): 1
Growth Rate (Fibroblast; replicate number 2): -0.34
Growth Rate (U2OS; replicate number 1): 1
Growth Rate (U2OS; replicate number 2): 0.73

Nc1cc(F)ccc1NC(=O)c1ccc(CNC(=O)/C=C/c2cccnc2)cc1 [TUCIDINOSTAT]
Growth Rate (HEK-293T; replicate number 1): 1
Growth Rate (Fibroblast; replicate number 1): 1
Growth Rate (U2OS; replicate number 1): -0.5
Growth Rate (U2OS; replicate number 2): 0.82

CC(=O)O[C@]1(C(C)=O)CC[C@H]2[C@@H]3CCC4=CC(=O)CCC4=C3[C@@H](c3ccc(N(C)C)cc3)C[C@@]21C [ULIPRISTAL ACETATE]
Growth Rate (HEK-293T; replicate number 1): 0.78
Growth Rate (HEK-293T; replicate number 2): 0.96
Growth Rate (Fibroblast; replicate number 1): 0.18
Growth Rate (Fibroblast; replicate number 2): 0.99
Growth Rate (U2OS; replicate number 1): 0.94
Growth Rate (U2OS; replicate number 2): 0.78

CC(C)Nc1cc(-c2c[nH]c(C(=O)N[C@H](CO)c3cccc(Cl)c3)c2)c(Cl)cn1 [ULIXERTINIB]
Growth Rate (HEK-293T; replicate number 1): 1
Growth Rate (Fibroblast; replicate number 1): 0.93
Growth Rate (Fibroblast; replicate number 2): 0.08
Growth Rate (U2OS; replicate number 1): 0.68
Growth Rate (U2OS; replicate number 2): 0.74

Cc1cc(C)c(CNC(=O)c2cc(Cl)c3c(c2C)O[C@@](C)([C@H]2CC[C@H](N(C)C)CC2)O3)c(=O)[nH]1 [VALEMETOSTAT]
Growth Rate (HEK-293T; replicate number 1): 0.77
Growth Rate (HEK-293T; replicate number 2): 0.96
Growth Rate (Fibroblast; replicate number 1): 1
Growth Rate (Fibroblast; replicate number 2): 0.46
Growth Rate (U2OS; replicate number 1): 0.4
Growth Rate (U2OS; replicate number 2): 0.98

COc1cc2c(Nc3ccc(Br)cc3F)ncnc2cc1OCC1CCN(C)CC1 [VANDETANIB]
Growth Rate (HEK-293T; replicate number 1): -0.15
Growth Rate (HEK-293T; replicate number 2): 0.26
Growth Rate (Fibroblast; replicate number 1): 0.22
Growth Rate (Fibroblast; replicate number 2): -0.22
Growth Rate (U2OS; replicate number 1): -0.56
Growth Rate (U2OS; replicate number 2): 0.01

Cc1nc(-c2cnc(NC(C)C)n(C)c2=O)ccc1Oc1ccnc(-c2cnn(C)c2)c1 [VIMSELTINIB]
Growth Rate (HEK-293T; replicate number 1): 0.39
Growth Rate (HEK-293T; replicate number 2): 0.02
Growth Rate (Fibroblast; replicate number 1): 0.29
Growth Rate (Fibroblast; replicate number 2): -0.35
Growth Rate (U2OS; replicate number 1): 0.42
Growth Rate (U2OS; replicate number 2): 0.46
